Experimental data taken from patent publication US6329526A, “Cycloalkyl substituted imidazoles” (SmithKline Beecham Corporation, priority 1998, dated 2001).
pIC50: −log10 of the molar value.

What was measured:
[1] = tested on: Tumour Necrosis Factor (TNF); assay: TNF production by LPS-stimulated human peripheral blood monocytes (radioimmunoassay or ELISA); assay type: cell-based; details: LPS 100 ng/ml, 16-18 hours
Interleukin-1 (IL-1) = assay: IL-1 production by LPS-stimulated human peripheral blood monocytes (IL-1 bioassay or ELISA); assay type: cell-based; details: LPS 50 ng/ml, 24 hours
Method: The cytokine-inhibiting effects of compounds of the present invention were determined by the following in vitro assays: Interleukin -1 (IL-1) Human peripheral blood monocytes are isolated and purified from either fresh blood preparations from volunteer donors, or from blood bank buffy coats, according to the procedure of Colotta et al, J Immunol, 132, 936 (1984). These monocytes (1×10^6) are plated in 24-well plates at a concentration of 1-2 million/ml per well. The cells are allowed to adhere for 2 hours, after which time non-adherent cells are removed by gentle washing. Test compounds are then added to the cells for about 1 hour before the addition of lipopolysaccharide (50 ng/ml), and the cultures are incubated at 37° C. for an additional 24 hours. At the end of this period, culture supernatants are removed and clarified of cells and all debris. Culture supernatants are then immediately assayed for IL-1 biological activity, either by the method of Simon et al., J. Immunol. Methods, 84, 85, (1985) (based on ability of IL-1 to stimulate a Interleukin 2 producing cell line (EL-4) to secrete IL-2, in concert with A23187 ionophore) or the method of Lee et al., J. ImmunoTherapy, 6 (1), 1-12 (1990) (ELISA assay).

Interleukin-8 (IL-8) = assay: IL-8 production by primary human umbilical cord endothelial cells (HUVEC), ELISA; assay type: cell-based; details: test compound between 1 and 10 μM
Method: Primary human umbilical cord endothelial cells (HUVEC) (Cell Systems, […], Wash.) are maintained in culture medium supplemented with 15% fetal bovine serum and 1% CS-HBGF consisting of aFGF and heparin. The cells are then diluted 20-fold before being plated (250 μl) into gelating coated 96-well plates. Prior to use, culture medium are replaced with fresh medium (200 μl). Buffer or test compound (25 μl, at concentrations between 1 and 10 μM) is then added to each well in quadruplicate wells and the plates incubated for 6h in a humidified incubator at 37° C. in an atmosphere of 5% CO2. At the end of the incubation period, supernatant is removed and assayed for IL-8 concentration using an IL-8 ELISA kit obtained from R&D Systems (Minneapolis, Minn.). All data is presented as mean value (ng/ml) of multiple samples based on the standard curve. IC50's where appropriate are generated by non-linear regression analysis.

human PGHS-2 = assay: PGHS-2 protein expression in LPS stimulated human monocytes; assay type: cell-based
Method: The following assay describes a method for determining the inhibitory effects of compounds of Formula (I) on human PGHS-2 protein expression in LPS stimulated human monocytes.
Method: Human peripheral blood monocytes were isolated from buffy coats by centrifugation through Ficoll and Percoll gradients. Cells were seeded at 2×10^6 /well in 24 well plates and allowed to adhere for 1 hour in RPMI supplemented with 1% human AB serum, 20 mM L-glutamine, Penicillin-Streptomycin and 10 mM HEPES. Compounds were added at various concentrations and incubated at 37° C. for 10 minutes. LPS was added at 50 ng/well (to induce enzyme expression) and incubated overnight at 37° C. The supernatant was removed and cells washed once in cold PBS. The cells were lysed in 100 μl of cold lysis buffer(50 mM Tris/HCl pH 7.5, 150 mM NaCl, 1% NP40, 0.5% sodium deoxycholate, 0.1% SDS, 300 ug/ml DNAse, 0.1% TRITON X-100, 1 mM PMSF, 1 mM leupeptin, 1 mM pepstatin). The lysate was centrifuged (10,000× g for 10 min. at 4° C.) to remove debris and the soluble fraction was subjected to SDS PAGE. analysis (12% gel). Protein separated on the gel were transferred onto nitrocellulose membrane by electrophoretic means for 2 hours at 60 volts. The membrane was pretreated for one hour in PBS/0.1% Tween 20 with 5% non-fat dry milk. After washing 3 times in PBS/Tween buffer, the membrane was incubated with a 1:2000 dilution of a monospecific antiserum to PGHS-2 or a 1:1000 dilution of an antiserum to PGHs-1 in PBS/Tween with 1% BSA for one hour with continuous shaking. The membrane was washed 3× in PBS/Tween and then incubated with a 1:3000 dilution of horseradish peroxidase conjugated donkey antiserum to rabbit Ig (Amersham) in PBS/Tween with 1% BSA for one hour with continuous shaking. The membrane was then washed 3× in PBS/Tween and the ECL immunodetection system (Amersham) was used to detect the level of expression of prostaglandin endoperoxide synthases-2.

CSBP2 = biological target: T1, CSBP2 (Homo sapiens, UniProt Q16539); assay: CSBP Kinase Assay (32P transfer to EGFR-derived peptide T669); assay type: biochemical
T1 construct: made in house; host or cells: yeast
T1 sequence (Q16539 whole entry): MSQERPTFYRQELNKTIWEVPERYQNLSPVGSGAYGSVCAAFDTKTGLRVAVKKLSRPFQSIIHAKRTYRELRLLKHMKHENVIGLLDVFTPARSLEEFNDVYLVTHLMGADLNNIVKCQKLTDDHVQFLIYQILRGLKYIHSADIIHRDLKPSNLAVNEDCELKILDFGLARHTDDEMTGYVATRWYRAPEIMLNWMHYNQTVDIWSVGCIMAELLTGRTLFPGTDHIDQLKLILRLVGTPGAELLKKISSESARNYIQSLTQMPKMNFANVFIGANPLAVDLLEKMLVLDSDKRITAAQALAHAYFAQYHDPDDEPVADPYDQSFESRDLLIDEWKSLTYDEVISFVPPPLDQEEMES
Method: Compounds (5 ul from [6X] stock^(2)) are pre-incubated with the enzyme and peptide for 20 min on ice prior to starting the reactions with 32P/MgATP. Reactions are incubated at 30° C. for 10 min and stopped by adding 10 ul of 0.3 M phosphoric acid. 32P-labeled peptide is separated on phosphocellulose (Wattman, p81) filters by spotting 30 ul reaction mixture. Filters are washed 3 times with 75 mM phosphoric acid followed by 2 washes with H2 O, and counted for 32P.

**Q.** Which results are given for COc1nccc(-c2c(-c3ccc(F)cc3)ncn2[C@H]2CC[C@H](O)CC2)n1 [Example 2, trans-1-(4-Hydroxycyclohexyl)-4-(4-fluorophenyl)-5-[(2-methoxy)pyrimidin-4-yl]imidazole]?
**A.** inhibitory activity against TNF [1]: positive inhibitory activity; inhibitory activity against IL-1 (Interleukin-1 (IL-1)): positive inhibitory activity; inhibitory activity against IL-8 (Interleukin-8 (IL-8)): positive inhibitory activity

**Q.** C[S+]([O-])c1ccc(-c2nc(-c3ccc(F)cc3)c(-c3ccncc3)[nH]2)cc1 (stereo not drawn) [4-(4-Fluorophenyl)-2-(4-methylsulfinylphenyl)-5-(4-pyridyl)imidazole] was tested. Which “inhibition of LPS induced PGHS-2 protein expression” value (“inhibition” for short) (human PGHS-2; LPS stimulated human monocytes, rank order potency similar to that for inhibiting cytokine production) did it give?
**A.** Its value is “active”.

**Q.** Which “inhibition” value (human PGHS-2; up to 10 uM) does the source give for COc1ccc(C2CNC(=O)C2)cc1OC1CCCC1 (stereo not drawn) [rolipram] here?
**A.** Its value is “inactive”.

**Q.** With CC(Cc1ccc(O)c(O)c1)C(C)Cc1ccc(O)c(O)c1 (stereo not drawn) [NDGA] as the molecule, how does the “inhibition” value (human PGHS-2; up to 10 uM) read?
**A.** The value was “inactive”.

**Q.** Which “inhibition” value (human PGHS-2; up to 10 uM) does the source give for C[S+]([O-])c1ccc(-c2nc3n(c2-c2ccncc2)CCC3)cc1 (stereo not drawn) [2-(4-Methylsulfinylphenyl)-3-(4-pyridyl)-6,7-dihydro-(5H)-pyrrolo[1,2-a]imidazole] here?
**A.** Its value is “inactive”.

**Q.** CCOc1nccc(-c2c(-c3ccc(F)cc3)ncn2[C@H]2CC[C@H](O)CC2)n1 [Example 9, trans-1-(4-Hydroxycyclohexyl)-4-(4-fluorophenyl)-5-[(2-ethoxy)pyrimidine-4-yl]imidazole] was tested. Which pIC50 (CSBP2) did it give?
**A.** Its pIC50 is over 4.30.

**Q.** With O=C1CCN(c2ccccc2)N1 [phenidone] as the molecule, how does the “inhibition” value (human PGHS-2; up to 10 uM) read?
**A.** The value was “inactive”.
